Measurements from PMC5218480 (PLoS ONE, 2017).

System: MV-4-11 cells
Experiment: Gene expression microarray analysis (Affymetrix PrimeView) and GSEA
Format: cell-based, human
Design: RFU PODN (11730768_x_at) / Fold change /veh PODN (11730768_x_at) / RFU LINC00158 (11744669_a_at) / Fold change /veh LINC00158 (11744669_a_at) / RFU DUSP10 (11751237_a_at) / Fold change /veh DUSP10 (11751237_a_at) / RFU ID3 (11757404_x_at) / Fold change /veh ID3 (11757404_x_at) / RFU PLEKHG5 (11737974_s_at) / Fold change /veh PLEKHG5 (11737974_s_at) / RFU LRRC4B (11730491_at) / Fold change /veh LRRC4B (11730491_at) / RFU GIMAP4 (11747438_a_at) / Fold change /veh GIMAP4 (11747438_a_at) / RFU KRT8 (11758183_x_at) / Fold change /veh KRT8 (11758183_x_at) / RFU CNN1 (11734310_a_at) / Fold change /veh CNN1 (11734310_a_at) / RFU VPS37D (11726825_at) / Fold change /veh VPS37D (11726825_at) / RFU C10orf10 (11716522_x_at) / Fold change /veh C10orf10 (11716522_x_at) / RFU KIR2DL2 /// KIR2DL4 /// KIR2DL5A /// KIR2DL5B /// KIR2DS1 /// KIR2DS2 /// KIR2DS3 /// KIR2DS4 /// KIR3DL3 /// KIR3DL3 /// KIR3DS1 (11738374_at) / Fold change /veh KIR2DL2 /// KIR2DL4 /// KIR2DL5A /// KIR2DL5B /// KIR2DS1 /// KIR2DS2 /// KIR2DS3 /// KIR2DS4 /// KIR3DL3 /// KIR3DL3 /// KIR3DS1 (11738374_at) / RFU C1QL1 (11718748_at) / Fold change /veh C1QL1 (11718748_at) / RFU TMPRSS4 (11747572_a_at) / Fold change /veh TMPRSS4 (11747572_a_at) / RFU HAMP (11756126_x_at) / Fold change /veh HAMP (11756126_x_at) / RFU RNFT2 (11725882_a_at) / Fold change /veh RNFT2 (11725882_a_at) / RFU NR4A2 (11747474_a_at) / Fold change /veh NR4A2 (11747474_a_at) / RFU ABCC12 (11746883_a_at) / Fold change /veh ABCC12 (11746883_a_at) / RFU TMEM136 (11760407_x_at) / Fold change /veh TMEM136 (11760407_x_at) / RFU CLDN22 /// WWC2 (11732394_at) / Fold change /veh CLDN22 /// WWC2 (11732394_at) / RFU HLA-DPB1 (11760878_x_at) / Fold change /veh HLA-DPB1 (11760878_x_at) / RFU SPINT1 (11716480_a_at) / Fold change /veh SPINT1 (11716480_a_at) / RFU GAP43 (11754022_s_at) / Fold change /veh GAP43 (11754022_s_at) / RFU A4GNT (11735810_at) / Fold change /veh A4GNT (11735810_at) / RFU PRB3 (11715151_x_at) / Fold change /veh PRB3 (11715151_x_at) / RFU TUBB4B (11761932_at) / Fold change /veh TUBB4B (11761932_at) / RFU CAPN14 (11732068_a_at) / Fold change /veh CAPN14 (11732068_a_at) / RFU TMCC2 (11721928_a_at) / Fold change /veh TMCC2 (11721928_a_at) / RFU IRGQ (11745062_a_at) / Fold change /veh IRGQ (11745062_a_at) / RFU FAM174B (11720279_a_at) / Fold change /veh FAM174B (11720279_a_at) / RFU TMPRSS4 (11748680_a_at) / Fold change /veh TMPRSS4 (11748680_a_at) / RFU FAM212B (11763350_a_at) / Fold change /veh FAM212B (11763350_a_at) / RFU PLEKHG5 (11743358_a_at) / Fold change /veh PLEKHG5 (11743358_a_at) / RFU ZSCAN30 (11745921_a_at) / Fold change /veh ZSCAN30 (11745921_a_at) / RFU CMKLR1 (11741424_a_at) / Fold change /veh CMKLR1 (11741424_a_at) / RFU LOC101060620 /// MAPK8IP1 (11723275_at) / Fold change /veh LOC101060620 /// MAPK8IP1 (11723275_at) / RFU SPTSSB (11747773_x_at) / Fold change /veh SPTSSB (11747773_x_at) / RFU PRSS12 (11739890_at) / Fold change /veh PRSS12 (11739890_at) / RFU BIN1 (11741810_x_at) / Fold change /veh BIN1 (11741810_x_at) / RFU WNT11 (11732464_a_at) / Fold change /veh WNT11 (11732464_a_at) / RFU C10orf10 (11716521_a_at) / Fold change /veh C10orf10 (11716521_a_at) / RFU C5orf56 (11738089_at) / Fold change /veh C5orf56 (11738089_at) / RFU CYB561 (11721691_x_at) / Fold change /veh CYB561 (11721691_x_at) / RFU ANKRD19P (11752326_a_at) / Fold change /veh ANKRD19P (11752326_a_at) / RFU OR2T12 /// OR2T33 /// OR2T8 (11738714_s_at) / Fold change /veh OR2T12 /// OR2T33 /// OR2T8 (11738714_s_at) / RFU VCAN (11748164_a_at) / Fold change /veh VCAN (11748164_a_at) / RFU JSRP1 (11732532_at) / Fold change /veh JSRP1 (11732532_at) / RFU KRTAP10-11 (11738290_x_at) / Fold change /veh KRTAP10-11 (11738290_x_at) / RFU MYO3A (11730013_a_at) / Fold change /veh MYO3A (11730013_a_at) / RFU EBF3 (11725865_a_at) / Fold change /veh EBF3 (11725865_a_at) / RFU CAMK2N1 (11719241_x_at) / Fold change /veh CAMK2N1 (11719241_x_at) / RFU C5orf56 (11738088_a_at) / Fold change /veh C5orf56 (11738088_a_at) / RFU OLFML3 (11715873_a_at) / Fold change /veh OLFML3 (11715873_a_at) / RFU LOC100653217 /// NTM (11731650_a_at) / Fold change /veh LOC100653217 /// NTM (11731650_a_at) / RFU MAPK11 (11762145_a_at) / Fold change /veh MAPK11 (11762145_a_at) / RFU FIZ1 (11724087_x_at) / Fold change /veh FIZ1 (11724087_x_at) / RFU OASL (11726364_x_at) / Fold change /veh OASL (11726364_x_at) / RFU SOX15 (11748057_x_at) / Fold change /veh SOX15 (11748057_x_at) / RFU CD79A (11719716_a_at) / Fold change /veh CD79A (11719716_a_at) / RFU HIST1H1D (11736915_at) / Fold change /veh HIST1H1D (11736915_at) / RFU CASKIN2 (11723855_a_at) / Fold change /veh CASKIN2 (11723855_a_at) / RFU LOC730098 (11760151_x_at) / Fold change /veh LOC730098 (11760151_x_at) / RFU OR4N2 (11742367_at) / Fold change /veh OR4N2 (11742367_at) / RFU PRRT2 (11749266_a_at) / Fold change /veh PRRT2 (11749266_a_at) / RFU SNX32 (11753110_a_at) / Fold change /veh SNX32 (11753110_a_at) / RFU CDHR5 (11726645_a_at) / Fold change /veh CDHR5 (11726645_a_at) / RFU RCAN1 (11760418_a_at) / Fold change /veh RCAN1 (11760418_a_at) / RFU FAM167A (11723789_a_at) / Fold change /veh FAM167A (11723789_a_at) / RFU FAM26E (11764081_at) / Fold change /veh FAM26E (11764081_at) / RFU ISYNA1 (11749810_s_at) / Fold change /veh ISYNA1 (11749810_s_at) / RFU ACY1 (11761880_at) / Fold change /veh ACY1 (11761880_at) / RFU 11764098_at / Fold change /veh 11764098_at / RFU SAMD14 (11745864_x_at) / Fold change /veh SAMD14 (11745864_x_at) / RFU NPB (11741838_a_at) / Fold change /veh NPB (11741838_a_at) / RFU TMPRSS6 (11731388_a_at) / Fold change /veh TMPRSS6 (11731388_a_at) / RFU KRTAP10-2 (11738614_at) / Fold change /veh KRTAP10-2 (11738614_at) / RFU ARHGAP8 /// PRR5-ARHGAP8 (11727945_x_at) / Fold change /veh ARHGAP8 /// PRR5-ARHGAP8 (11727945_x_at) / RFU KRTAP5-7 /// NADSYN1 (11734609_at) / Fold change /veh KRTAP5-7 /// NADSYN1 (11734609_at) / RFU RASL12 (11751679_a_at) / Fold change /veh RASL12 (11751679_a_at) / RFU CDKN2B (11736163_a_at) / Fold change /veh CDKN2B (11736163_a_at) / RFU PRF1 (11729649_at) / Fold change /veh PRF1 (11729649_at) / RFU, ZNF638 /// ZNF638-IT1 / Fold change vs veh, ZNF638 /// ZNF638-IT1 / RFU, PANK3 / Fold change vs veh, PANK3 / RFU, SH3YL1 / Fold change vs veh, SH3YL1 / RFU, ZEB2 / Fold change vs veh, ZEB2 / RFU, NRIP1 / Fold change vs veh, NRIP1 / RFU, PTTG1IP / Fold change vs veh, PTTG1IP / RFU, CAPN2 / Fold change vs veh, CAPN2 / RFU, MED14 / Fold change vs veh, MED14 / RFU, SNORA58 / Fold change vs veh, SNORA58 / RFU, C1orf63 / Fold change vs veh, C1orf63 / RFU, LRRFIP1 / Fold change vs veh, LRRFIP1 / RFU, NDUFAF7 / Fold change vs veh, NDUFAF7 / RFU, SLC12A2 / Fold change vs veh, SLC12A2 / RFU, IBTK / Fold change vs veh, IBTK / RFU, ESF1 / Fold change vs veh, ESF1 / Fold change vs veh, TMEM50B / RFU, TAOK1 / Fold change vs veh, TAOK1 / RFU, ACBD3 / Fold change vs veh, ACBD3 / RFU, TMA16 / Fold change vs veh, TMA16 / RFU, RWDD3 / Fold change vs veh, RWDD3 / RFU, BCAT1 / Fold change vs veh, BCAT1 / RFU, EDEM3 / Fold change vs veh, EDEM3 / RFU, TMEM33 / Fold change vs veh, TMEM33 / RFU, WDR75 / Fold change vs veh, WDR75 / RFU, AHCTF1 / Fold change vs veh, AHCTF1 / RFU, TFRC / Fold change vs veh, TFRC / RFU, ZDHHC17 / Fold change vs veh, ZDHHC17 / RFU, NOM1 / Fold change vs veh, NOM1 / RFU, ARL8B / Fold change vs veh, ARL8B / RFU, ZBTB11 / Fold change vs veh, ZBTB11 / RFU, TAMM41 / Fold change vs veh, TAMM41 / RFU, KIAA1704 /// LOC100996395 / Fold change vs veh, KIAA1704 /// LOC100996395 / RFU, ING1 / Fold change vs veh, ING1 / RFU, TRMT61B / Fold change vs veh, TRMT61B / RFU, FUBP3 / Fold change vs veh, FUBP3 / RFU, TP53 / Fold change vs veh, TP53 / RFU, TNKS2 / Fold change vs veh, TNKS2 / RFU, ZFP14 / Fold change vs veh, ZFP14 / RFU, ACTR2 / Fold change vs veh, ACTR2 / RFU, PPP3R1 / Fold change vs veh, PPP3R1 / RFU, PIK3R1 / Fold change vs veh, PIK3R1 / RFU, HNRNPA1 / Fold change vs veh, HNRNPA1 / RFU, RNF170 / Fold change vs veh, RNF170 / RFU, ZNF28 / Fold change vs veh, ZNF28 / RFU, RNGTT / Fold change vs veh, RNGTT / RFU, OGT / Fold change vs veh, OGT / RFU, BRD1 / Fold change vs veh, BRD1 / RFU, MARS / Fold change vs veh, MARS / RFU, ZNF655 / Fold change vs veh, ZNF655 / RFU, FAHD1 / Fold change vs veh, FAHD1 / RFU, BDP1 / Fold change vs veh, BDP1 / RFU, LRRCC1 / Fold change vs veh, LRRCC1 / RFU, ARID1A / Fold change vs veh, ARID1A / RFU, ZNF146 / Fold change vs veh, ZNF146 / RFU, ZNF330 / Fold change vs veh, ZNF330 / RFU, GPN3 / Fold change vs veh, GPN3 / RFU, C9orf123 / Fold change vs veh, C9orf123 / RFU, N4BP2L2 / Fold change vs veh, N4BP2L2 / RFU, ARFIP1 / Fold change vs veh, ARFIP1 / RFU, FAM179B / Fold change vs veh, FAM179B / RFU, BCL10 / Fold change vs veh, BCL10 / RFU, UHRF1BP1L / Fold change vs veh, UHRF1BP1L / RFU, BET1 / Fold change vs veh, BET1 / RFU, CNOT2 / Fold change vs veh, CNOT2 / RFU, ZNF268 / Fold change vs veh, ZNF268 / Fold change vs veh, ZNF507 / RFU, DGCR2 / Fold change vs veh, DGCR2 / RFU, WDSUB1 / Fold change vs veh, WDSUB1 / Fold change vs veh, HSP90B1 /// MIR3652 / RFU, ADSS / Fold change vs veh, ADSS / RFU, GK / Fold change vs veh, GK / RFU, ZNF148 / Fold change vs veh, ZNF148 / RFU, TAF9 / Fold change vs veh, TAF9 / RFU, SLC1A5 / Fold change vs veh, SLC1A5 / RFU, SLMO2 / Fold change vs veh, SLMO2 / RFU, ABCC4 / Fold change vs veh, ABCC4 / RFU, LOC101060439 /// RAP1B / Fold change vs veh, LOC101060439 /// RAP1B / RFU, RFX7 / Fold change vs veh, RFX7 / RFU, GTPBP10 / Fold change vs veh, GTPBP10 / RFU, CNEP1R1 / Fold change vs veh, CNEP1R1 / RFU, BIVM-ERCC5 /// ERCC5 / Fold change vs veh, BIVM-ERCC5 /// ERCC5 / RFU, ILF3 / Fold change vs veh, ILF3 / RFU 11762660_at / Fold change /veh 11762660_at / RFU VCAN (11757783_s_at) / Fold change /veh VCAN (11757783_s_at) / RFU DDX43 (11728927_at) / Fold change /veh DDX43 (11728927_at) / RFU KRT8 (11758188_x_at) / Fold change /veh KRT8 (11758188_x_at) / RFU NKD1 (11759106_at) / Fold change /veh NKD1 (11759106_at) / RFU SRD5A1 (11742802_a_at) / Fold change /veh SRD5A1 (11742802_a_at) / RFU TPSAB1 /// TPSB2 (11721975_s_at) / Fold change /veh TPSAB1 /// TPSB2 (11721975_s_at) / RFU GSTM3 (11746129_a_at) / Fold change /veh GSTM3 (11746129_a_at) / RFU IL23R (11737362_x_at) / Fold change /veh IL23R (11737362_x_at) / RFU TMEM51 (11727254_a_at) / Fold change /veh TMEM51 (11727254_a_at) / RFU PIWIL2 (11732686_x_at) / Fold change /veh PIWIL2 (11732686_x_at) / RFU ORM1 (11744905_x_at) / Fold change /veh ORM1 (11744905_x_at) / RFU CCDC152 (11743942_at) / Fold change /veh CCDC152 (11743942_at) / RFU ECM1 (11717891_a_at) / Fold change /veh ECM1 (11717891_a_at) / RFU IL23R (11748794_a_at) / Fold change /veh IL23R (11748794_a_at) / RFU TNFAIP8L3 (11732012_x_at) / Fold change /veh TNFAIP8L3 (11732012_x_at) / RFU MBOAT4 (11741988_at) / Fold change /veh MBOAT4 (11741988_at) / RFU 11764193_at / Fold change /veh 11764193_at / RFU TMEM53 (11763286_at) / Fold change /veh TMEM53 (11763286_at) / RFU MAGEB2 (11727129_at) / Fold change /veh MAGEB2 (11727129_at) / RFU TMEM200A (11744735_a_at) / Fold change /veh TMEM200A (11744735_a_at) / RFU CCDC152 (11751479_a_at) / Fold change /veh CCDC152 (11751479_a_at) / RFU FAM211A (11726209_a_at) / Fold change /veh FAM211A (11726209_a_at) / RFU RGS16 (11746705_a_at) / Fold change /veh RGS16 (11746705_a_at) / RFU VCAN (11755009_s_at) / Fold change /veh VCAN (11755009_s_at) / RFU RHOB (11743442_s_at) / Fold change /veh RHOB (11743442_s_at) / RFU RGS16 (11720943_a_at) / Fold change /veh RGS16 (11720943_a_at) / RFU RGS16 (11720944_at) / Fold change /veh RGS16 (11720944_at) / RFU, VPS4B / Fold change vs veh, VPS4B / RFU, CREB1 / Fold change vs veh, CREB1 / RFU, DNAJC13 / Fold change vs veh, DNAJC13 / RFU, GNAQ / Fold change vs veh, GNAQ / RFU, CDK5R1 / Fold change vs veh, CDK5R1 / RFU, ZRANB3 / Fold change vs veh, ZRANB3 / RFU, CUL4A / Fold change vs veh, CUL4A / RFU, CCNY / Fold change vs veh, CCNY / RFU, UFL1 / Fold change vs veh, UFL1 / RFU, COG3 / Fold change vs veh, COG3 / RFU, DIAPH2 / Fold change vs veh, DIAPH2 / RFU, SKA2 / Fold change vs veh, SKA2 / RFU, AFF3 / Fold change vs veh, AFF3 / RFU, LMF1 / Fold change vs veh, LMF1 / RFU, IPO11 / Fold change vs veh, IPO11 / RFU, DFFB / Fold change vs veh, DFFB / RFU, FOXP1 / Fold change vs veh, FOXP1 / RFU, CARD8 / Fold change vs veh, CARD8 / RFU, STRN3 / Fold change vs veh, STRN3 / RFU, ADK / Fold change vs veh, ADK / RFU, RASSF2 / Fold change vs veh, RASSF2 / RFU, WIPF1 / Fold change vs veh, WIPF1 / RFU, LARP1B / Fold change vs veh, LARP1B / RFU, RASA1 / Fold change vs veh, RASA1 / RFU, RB1 / Fold change vs veh, RB1 / RFU, PPFIA1 / Fold change vs veh, PPFIA1 / RFU, MAT2A / Fold change vs veh, MAT2A / RFU, CCT5 / Fold change vs veh, CCT5 / RFU, WDR92 / Fold change vs veh, WDR92 / RFU, CUX1 / Fold change vs veh, CUX1 / RFU, TTC7A / Fold change vs veh, TTC7A / RFU, TMEM135 / Fold change vs veh, TMEM135 / RFU, DEPTOR / Fold change vs veh, DEPTOR / RFU, CPM / Fold change vs veh, CPM / RFU, DNAJB6 / Fold change vs veh, DNAJB6 / RFU, CACNA2D3 / Fold change vs veh, CACNA2D3 / RFU, DTX4 / Fold change vs veh, DTX4 / RFU, TFCP2 / Fold change vs veh, TFCP2 / RFU, GMCL1 /// GMCL1P1 / Fold change vs veh, GMCL1 /// GMCL1P1 / RFU, AEBP2 / Fold change vs veh, AEBP2 / RFU, SNHG1 /// SNORD22 /// SNORD25 /// SNORD26 /// SNORD27 /// SNORD28 /// SNORD29 /// SNORD31 / Fold change vs veh, SNHG1 /// SNORD22 /// SNORD25 /// SNORD26 /// SNORD27 /// SNORD28 /// SNORD29 /// SNORD31 / Fold change (Aza/veh), C12orf56 (ProbeSet 11735607_a_at) / Fold change (ACY-1035/veh), C12orf56 (ProbeSet 11735607_a_at) / Fold change (Aza/veh), FGFR1OP (ProbeSet 11751329_s_at) / Fold change (ACY-1035/veh), FGFR1OP (ProbeSet 11751329_s_at) / Fold change (Aza/veh), VPS36 (ProbeSet 11739960_a_at) / Fold change (ACY-1035/veh), VPS36 (ProbeSet 11739960_a_at) / RFU SYPL1 (11715823_x_at) / Fold change /veh SYPL1 (11715823_x_at) / RFU IGFBP7 (11715501_s_at) / Fold change /veh IGFBP7 (11715501_s_at) / RFU REEP3 (11722064_at) / Fold change /veh REEP3 (11722064_at) / RFU IGLL1 (11728026_x_at) / Fold change /veh IGLL1 (11728026_x_at): dose or concentration left out as unconfirmed
Conditions: MV-4-11 cells, 48 hours

`Nc1ccc(-c2cccs2)cc1NC(=O)c1ccc2c(c1)cc(C1CC1)n2CCN1CCOCC1` [ACY-1035] was tested. Which “Fold change /veh SPINT1 (11716480_a_at)” value did it give?
The value was 1.05.
